The nature of data set [1]: Toxicity in golden hamster infected with Leishmania (Viannia) braziliensis HMOM/COL/88/UA301-EGFP assessed as change in body weight at 200 ug administered intralesionally twice per week for 4 weeks measured up to 90 days post last dose. Further details: species or system Mesocricetus auratus. Particulars: in vivo, other.
The nature of data set [2]: Toxicity in golden hamster infected with Leishmania (Viannia) braziliensis HMOM/COL/88/UA301-EGFP assessed as effect on serum alanine aminotransferase level at 200 ug administered intralesionally twice per week for 4 weeks measured day 8 post last treatment. Set-up: species or system Mesocricetus auratus. Particulars: in vivo, other, 672 h.
Data set [3] can be described thus: Toxicity in golden hamster infected with Leishmania (Viannia) braziliensis HMOM/COL/88/UA301-EGFP assessed as effect on serum BUN level at 200 ug administered intralesionally twice per week for 4 weeks measured day 8 post last treatment. Set-up: species or system Mesocricetus auratus. Conditions: in vivo, other, 672 h.
A short description of data set [4]: Toxicity in golden hamster infected with Leishmania (Viannia) braziliensis HMOM/COL/88/UA301-EGFP assessed as effect on serum creatinine level at 200 ug administered intralesionally twice per week for 4 weeks measured day 8 post last treatment. Further details: species or system Mesocricetus auratus. Conditions: in vivo, other, 672 h.
Data set [5] in a line: Hepatotoxicity in golden hamster infected with Leishmania (Viannia) braziliensis HMOM/COL/88/UA301-EGFP assessed as vacuolar degeneration at 200 ug administered intralesionally twice per week for 4 weeks measured 90 days post last dose by histopathological analysis. Particulars: in vivo, other, 2160 h. The class given is toxicity, Mesocricetus auratus.
The nature of data set [6]: Hepatotoxicity in golden hamster infected with Leishmania (Viannia) braziliensis HMOM/COL/88/UA301-EGFP assessed as hemosiderin pigmentation at 200 ug administered intralesionally twice per week for 4 weeks measured 90 days post last dose by histopathological analysis. The class given is toxicity, Mesocricetus auratus. Particulars: in vivo, other, 2160 h.
Data set [7] can be described thus: Hepatotoxicity in golden hamster infected with Leishmania (Viannia) braziliensis HMOM/COL/88/UA301-EGFP assessed as congestion at 200 ug administered intralesionally twice per week for 4 weeks measured 90 days post last dose by histopathological analysis. The data set is classed as toxicity, Mesocricetus auratus. Particulars: in vivo, other, 2160 h.
Data set [8] in a line: Hepatotoxicity in golden hamster infected with Leishmania (Viannia) braziliensis HMOM/COL/88/UA301-EGFP assessed as infiltration of lymphocytes at 200 ug administered intralesionally twice per week for 4 weeks measured 90 days post last dose by histopathological analysis. The class given is toxicity, Mesocricetus auratus. Conditions: in vivo, other, 2160 h.
Data set [9] can be described thus: Hepatotoxicity in golden hamster infected with Leishmania (Viannia) braziliensis HMOM/COL/88/UA301-EGFP assessed as infiltration of macrophages at 200 ug administered intralesionally twice per week for 4 weeks measured 90 days post last dose by histopathological analysis. The class given is toxicity, Mesocricetus auratus. Conditions: in vivo, other, 2160 h.
A short description of data set [10]: Hepatotoxicity in golden hamster infected with Leishmania (Viannia) braziliensis HMOM/COL/88/UA301-EGFP assessed as hyperplasia at 200 ug administered intralesionally twice per week for 4 weeks measured 90 days post last dose by histopathological analysis. The class given is toxicity, Mesocricetus auratus. Conditions: in vivo, other, 2160 h.
Data set [11] is described as follows: Renal toxicity in golden hamster infected with Leishmania (Viannia) braziliensis HMOM/COL/88/UA301-EGFP assessed as turbid degeneration at 200 ug administered intralesionally twice per week for 4 weeks measured 90 days post last dose by histopathological analysis. Further details: species or system Mesocricetus auratus. Conditions: in vivo, other, 2160 h.
A short description of data set [12]: Renal toxicity in golden hamster infected with Leishmania (Viannia) braziliensis HMOM/COL/88/UA301-EGFP assessed as edema at 200 ug administered intralesionally twice per week for 4 weeks measured 90 days post last dose by histopathological analysis. Particulars: in vivo, other, 2160 h. Set-up: species or system Mesocricetus auratus.
Data set [13] can be described thus: Renal toxicity in golden hamster infected with Leishmania (Viannia) braziliensis HMOM/COL/88/UA301-EGFP assessed as fibrosis at 200 ug administered intralesionally twice per week for 4 weeks measured 90 days post last dose by histopathological analysis. Further details: species or system Mesocricetus auratus. Conditions: in vivo, other, 2160 h.
Data set [14] can be described thus: Renal toxicity in golden hamster infected with Leishmania (Viannia) braziliensis HMOM/COL/88/UA301-EGFP assessed as infiltration of plasma cells at 200 ug administered intralesionally twice per week for 4 weeks measured 90 days post last dose by histopathological analysis. Further details: species or system Mesocricetus auratus. Conditions: in vivo, other, 2160 h.

Data set [15] in a line: Renal toxicity in golden hamster infected with Leishmania (Viannia) braziliensis HMOM/COL/88/UA301-EGFP assessed as infiltration of lymphocytes at 200 ug administered intralesionally twice per week for 4 weeks measured 90 days post last dose by histopathological analysis. Set-up: species or system Mesocricetus auratus. Conditions: in vivo, other, 2160 h.
Data set [16] can be described thus: Renal toxicity in golden hamster infected with Leishmania (Viannia) braziliensis HMOM/COL/88/UA301-EGFP assessed as vacuolar degeneration at 200 ug administered intralesionally twice per week for 4 weeks measured 90 days post last dose by histopathological analysis. Further details: species or system Mesocricetus auratus. Particulars: in vivo, other, 2160 h.

The nature of data set [17]: Hepatotoxicity in golden hamster infected with Leishmania (Viannia) braziliensis HMOM/COL/88/UA301-EGFP assessed as external stress condition induced changes at 200 ug administered intralesionally twice per week for 4 weeks measured 90 days post last dose by histopathological analysis. The data set is classed as toxicity, Mesocricetus auratus. Conditions: in vivo, other, 2160 h.

Data set [18] in a line: Cytotoxicity against human U937 cells after 72 hrs by MTT assay. The data set is classed as cell-based, U-937. Conditions: read-out: LC50. Background: Tetrazolium assays rely on reduction of a dye to a coloured formazan, in cell work by metabolically active cells.
The subject of data set [19] is Leishmania braziliensis. Kind of data set: Antileishmanial activity against Leishmania (Viannia) braziliensis HMOM/COL/88/UA301-EGFP intracellular amastigotes infected in human U937 cells after 72 hrs by flow cytometric analysis. The class given is functional, organism-based. Particulars: HMOM/COL/88/UA301, U-937, 72 h.
The nature of data set [20]: Selectivity index, ratio of LC50 for human U937 cells to EC50 for Leishmania (Viannia) braziliensis HMOM/COL/88/UA301-EGFP intracellular amastigotes infected in human U937 cells. Conditions: read-out: Selectivity Index. The class given is toxicity, cell-based.
For data set [21], the system named is Leishmania braziliensis. Kind of data set: Antileishmanial activity against Leishmania (Viannia) braziliensis HMOM/COL/88/UA301-EGFP infected in golden hamster assessed as cure rate at 2.6% administered topically as cream formulation for 20 days measured 3 months post last dose relative to control. The data set is classed as functional.
In data set [22] the test system is Leishmania braziliensis. Kind of data set: Antileishmanial activity against Leishmania (Viannia) braziliensis HMOM/COL/88/UA301-EGFP infected in golden hamster assessed as clinical failure at 2.6% administered topically as cream formulation for 20 days measured 3 months post last dose relative to control. The data set is classed as functional.
Data set [23] concerns Leishmania braziliensis. The experiment in a line: Antileishmanial activity against Leishmania (Viannia) braziliensis HMOM/COL/88/UA301-EGFP infected in golden hamster assessed as relapse at 2.6% administered topically as cream formulation for 20 days measured 3 months post last dose relative to control. The class given is functional.
A short description of data set [24]: Toxicity in golden hamster infected with Leishmania (Viannia) braziliensis HMOM/COL/88/UA301-EGFP assessed as change in body weight at 2.6% administered topically as cream formulation for 20 days measured up to 90 days post last dose. Particulars: in vivo, topical_or_ocular. Set-up: species or system Mesocricetus auratus.
Data set [25] can be described thus: Toxicity in golden hamster infected with Leishmania (Viannia) braziliensis HMOM/COL/88/UA301-EGFP assessed as effect on serum alanine aminotransferase level at 2.6% administered topically as cream formulation for 20 days and measured day 8 post last treatment. Further details: species or system Mesocricetus auratus. Conditions: in vivo, topical_or_ocular, 480 h.

Data set [26] can be described thus: Toxicity in golden hamster infected with Leishmania (Viannia) braziliensis HMOM/COL/88/UA301-EGFP assessed as effect on serum creatinine level at 2.6% administered topically as cream formulation for 20 days and measured day 8 post last treatment. Conditions: in vivo, topical_or_ocular, 480 h. Set-up: species or system Mesocricetus auratus.
Data set [27] in a line: Toxicity in golden hamster infected with Leishmania (Viannia) braziliensis HMOM/COL/88/UA301-EGFP assessed as effect on serum BUN level at 2.6% administered topically as cream formulation for 20 days and measured day 8 post last treatment. Set-up: species or system Mesocricetus auratus. Conditions: in vivo, topical_or_ocular, 480 h.
The subject of data set [28] is Leishmania braziliensis. The experiment in a line: Antileishmanial activity against Leishmania (Viannia) braziliensis HMOM/COL/88/UA301-EGFP infected in golden hamster assessed as clinical improvement at 2.6% administered topically as cream formulation for 20 days measured 3 months post last dose relative to control. The class given is functional.
Data set [29] concerns Syrian golden hamster. The experiment in a line: Antiinflammatory activity in golden hamster infected with Leishmania (Viannia) braziliensis HMOM/COL/88/UA301-EGFP assessed as migration of lymphocytes in skin at 2.6% administered topically as cream formulation for 20 days and measured 3 months post last treatment by histopathological analysis. Particulars: Mesocricetus auratus. The data set is classed as functional, organism-based.

Data set [30] has as its system Syrian golden hamster. The experiment in a line: Antiinflammatory activity in golden hamster infected with Leishmania (Viannia) braziliensis HMOM/COL/88/UA301-EGFP assessed as migration of plasmocytes in skin at 2.6% administered topically as cream formulation for 20 days and measured 3 months post last treatment by histopathological analysis. The data set is classed as functional, organism-based. Particulars: Mesocricetus auratus.

Data set [31] concerns Syrian golden hamster. The experiment in a line: Antiinflammatory activity in golden hamster infected with Leishmania (Viannia) braziliensis HMOM/COL/88/UA301-EGFP assessed as migration of macrophages in skin at 2.6% administered topically as cream formulation for 20 days and measured 3 months post last treatment by histopathological analysis. Particulars: Mesocricetus auratus. The data set is classed as functional, organism-based.

The subject of data set [32] is Syrian golden hamster. Kind of data set: Antiinflammatory activity in golden hamster infected with Leishmania (Viannia) braziliensis HMOM/COL/88/UA301-EGFP assessed as re-epithelialization in skin at 2.6% administered topically as cream formulation for 20 days and measured 3 months post last treatment by histopathological analysis. The data set is classed as functional, organism-based. Particulars: Mesocricetus auratus.

Data set [33] is described as follows: Hepatotoxicity in golden hamster infected with Leishmania (Viannia) braziliensis HMOM/COL/88/UA301-EGFP assessed as vacuolar degeneration at 2.6% administered topically as cream formulation for 20 days measured 90 days post last dose by histopathological analysis. The class given is toxicity, Mesocricetus auratus. Particulars: in vivo, topical_or_ocular, 2160 h.

Data set [34] can be described thus: Hepatotoxicity in golden hamster infected with Leishmania (Viannia) braziliensis HMOM/COL/88/UA301-EGFP assessed as hemosiderin pigmentation at 2.6% administered topically as cream formulation for 20 days measured 90 days post last dose by histopathological analysis. The data set is classed as toxicity, Mesocricetus auratus. Particulars: in vivo, topical_or_ocular, 2160 h.

The nature of data set [35]: Hepatotoxicity in golden hamster infected with Leishmania (Viannia) braziliensis HMOM/COL/88/UA301-EGFP assessed as congestion at 2.6% administered topically as cream formulation for 20 days measured 90 days post last dose by histopathological analysis. The data set is classed as toxicity, Mesocricetus auratus. Particulars: in vivo, topical_or_ocular, 2160 h.
The nature of data set [36]: Hepatotoxicity in golden hamster infected with Leishmania (Viannia) braziliensis HMOM/COL/88/UA301-EGFP assessed as infiltration of lymphocytes at 2.6% administered topically as cream formulation for 20 days measured 90 days post last dose by histopathological analysis. The class given is toxicity, Mesocricetus auratus. Particulars: in vivo, topical_or_ocular, 2160 h.

The nature of data set [37]: Hepatotoxicity in golden hamster infected with Leishmania (Viannia) braziliensis HMOM/COL/88/UA301-EGFP assessed as infiltration of macrophages at 2.6% administered topically as cream formulation for 20 days measured 90 days post last dose by histopathological analysis. Particulars: in vivo, topical_or_ocular, 2160 h. The class given is toxicity, Mesocricetus auratus.

The nature of data set [38]: Renal toxicity in golden hamster infected with Leishmania (Viannia) braziliensis HMOM/COL/88/UA301-EGFP assessed as vacuolar degeneration at 2.6% administered topically as cream formulation for 20 days measured 90 days post last dose by histopathological analysis. Further details: species or system Mesocricetus auratus. Conditions: in vivo, topical_or_ocular, 2160 h.

The text below walks through data of ChEMBL document CHEMBL4308897, “Antileishmanial activity and cytotoxicity of ent-beyerene diterpenoids” (Bioorg Med Chem, 2019).

For orientation: EC50 means the concentration needed to bring the measured effect to its halfway point. Low readings indicate an effect from little substance, high ones a need for much substance.

Active and inactive are the calls of the source. No cut-off for these calls is given here.

Consider MEGLUMINE ANTIMONATE, for which the Activity result in data set [1] is on record as “Toxic”; in data set [2], “Non-Toxic”; in [3], “Non-Toxic”; in data set [4] it was “Non-Toxic”; in data set [5], “Toxic”; in data set [6], “Toxic”. In addition, the Activity entry in data set [7], in data set [8], in [9], in data set [10], in [11] and in [12] was “Toxic” each time. Moreover, the Activity result in data set [13], in data set [14], in [15], in data set [16] and in data set [17] was “Toxic” in each case.
`C[C@]12C=C[C@@]3(CC[C@@H]4[C@@](C)(CO)CCC[C@@]4(C)[C@@H]3CC1)C2`: the CC50 at 72 h in [18] was found to be 122 µM. The molecule further displayed an EC50 with Leishmania braziliensis [19] of 18.1 µM. The selectivity ratio in data set [20] turned out to be 7.7. Also, the Activity in the data set on Leishmania braziliensis [21] is 50%; in the data set with Leishmania braziliensis [22] it was 33.3%; in the data set on Leishmania braziliensis [23], 16.7%; in data set [24], “Non-Toxic”; in data set [25] it was “Non-Toxic”; in [26], “Non-Toxic”. The Activity result was “Non-Toxic” in [27]; 0% in the data set with Leishmania braziliensis [28]; “Toxic” in data set [33]; “Toxic” in data set [34]; “Toxic” in data set [35]; “Toxic” in data set [36]. Besides, the Activity entry in data set [37] and in data set [38] was “Toxic” throughout. Moreover, the outcome with Syrian golden hamster [29], in the data set with Syrian golden hamster [30], with Syrian golden hamster [31] and in the data set on Syrian golden hamster [32] was Active.
